Assay results taken from US9828396B2, “Alkyne compounds for treatment of complement mediated disorders” (Achillion Pharmaceuticals, Inc., priority 2014, dated 2017).

Target: Human factor D (Homo sapiens (Human), UniProt P00746)
Experiment: Human Factor D Assay
Assay type: biochemical
Conditions: Human factor D 80 nM, substrate Z-L-Lys-SBzl, assay of Example 12
Outline: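 Serum-purified human factor D (80 nM final) was preincubated 5 min at room temperature with compound in 50 mM Tris, 1 M NaCl, pH 7.5. Z-L-Lys-SBzl and DTNB (100 μM each) were added and OD405 followed kinetically over 30 min; IC50 from non-linear regression of percent inhibition.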

Sequence of Human factor D (P00746 26-253): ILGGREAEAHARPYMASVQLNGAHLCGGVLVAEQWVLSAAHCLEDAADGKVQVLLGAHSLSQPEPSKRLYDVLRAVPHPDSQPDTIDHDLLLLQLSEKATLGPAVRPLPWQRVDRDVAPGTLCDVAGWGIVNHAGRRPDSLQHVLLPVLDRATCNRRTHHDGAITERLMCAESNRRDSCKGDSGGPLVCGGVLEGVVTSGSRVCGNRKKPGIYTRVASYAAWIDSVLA

Q: `NC(=O)c1nn(CC(=O)N2[C@@H]3C[C@@H]3C[C@H]2C(=O)Nc2cccc(F)n2)c2ccc(C#Cc3ncccn3)cc12` [Compound 62, 1-(2-((1R,3S,5R)-3-(6-fluoropyridin-2-ylcarbamoyl)-2-azabicyclo[3.1.0]hexan-2-yl)-2-oxoethyl)-5-(pyrimidin-2-ylethynyl)-1H-indazole-3-carboxamide] was tested. Which IC50 did it give?
A: The IC50 was less than 1000 nM.

Q: With `NC(=O)c1nn(CC(=O)N2C[C@H](F)C[C@H]2C(=O)Nc2cccc(-c3cc(F)c(F)cc3Cl)c2F)c2ccc(C#Cc3ncc(F)cn3)cc12` [Compound 63, 1-(2-((2S,4R)-2-(2′-chloro-2,4′,5′-trifluorobiphenyl-3-ylcarbamoyl)-4-fluoropyrrolidin-1-yl)-2-oxoethyl)-5-((5-fluoropyrimidin-2-yl)ethynyl)-1H-indazole-3-carboxamide] as the compound, how does the IC50 read?
A: The IC50 was less than 1000 nM.

Q: With `NC(=O)c1nn(CC(=O)N2[C@@H]3C[C@@H]3C[C@H]2C(=O)Nc2cccc(-c3ccc(F)cc3Cl)c2F)c2ccc(C#Cc3ncc(F)cn3)cc12` [Compound 64, 1-(2-((1R,3S,5R)-3-(2′-chloro-2,4′-difluorobiphenyl-3-ylcarbamoyl)-2-azabicyclo[3.1.0]hexan-2-yl)-2-oxoethyl)-5-((5-fluoropyrimidin-2-yl)ethynyl)-1H-indazole-3-carboxamide] as the compound, how does the IC50 read?
A: The IC50 was less than 1000 nM.

Q: How did the IC50 turn out when `NC(=O)c1nn(CC(=O)N2[C@@H]3C[C@@H]3C[C@H]2C(=O)Nc2cccc(Br)n2)c2ccc(C#Cc3cc(F)ccn3)cc12` [Compound 65, 1-(2-((1R,3S,5R)-3-(6-bromopyridin-2-ylcarbamoyl)-2-azabicyclo[3.1.0]hexan-2-yl)-2-oxoethyl)-5-((4-fluoropyridin-2-yl)ethynyl)-1H-indazole-3-carboxamide] was run?
A: Its IC50 is less than 1000 nM.

Q: Which IC50 does the source give for `NC(=O)c1nn(CC(=O)N2CCS[C@H]2C(=O)Nc2cccc(-c3ccccc3Cl)c2F)c2ccc(C#Cc3ncccn3)cc12` [Compound 66, (S)-3-(2-(3-carbamoyl-5-(pyrimidin-2-ylethynyl)-1H-indazol-1-yl)acetyl)-N-(2′-chloro-2-fluorobiphenyl-3-yl)thiazolidine-2-carboxamide] here?
A: The IC50 was less than 1000 nM.

Q: `NC(=O)c1nn(CC(=O)N2C[C@H](F)C[C@H]2C(=O)NCc2cccc(Cl)c2F)c2cnc(C#Cc3ccccc3)cc12` [Compound 67, 1-(2-((2S,4R)-2-(3-chloro-2-fluorobenzylcarbamoyl)-4-fluoropyrrolidin-1-yl)-2-oxoethyl)-5-(phenylethynyl)-1H-pyrazolo[3,4-c]pyridine-3-carboxamide] was tested. Which IC50 did it give?
A: Its IC50 is less than 1000 nM.

Q: With `NC(=O)c1nn(CC(=O)N2C[C@H](F)C[C@H]2C(=O)Nc2cncc(Br)c2)c2ccc(C#Cc3ncc(F)cn3)cc12` [Compound 68, 1-(2-((2S,4R)-2-(5-bromopyridin-3-ylcarbamoyl)-4-fluoropyrrolidin-1-yl)-2-oxoethyl)-5-((5-fluoropyrimidin-2-yl)ethynyl)-1H-indazole-3-carboxamide] as the compound, how does the IC50 read?
A: The IC50 was less than 1000 nM.

Q: With `NC(=O)c1nn(CC(=O)N2C[C@H](F)C[C@H]2C(=O)Nc2cccc(-c3cncnc3)c2F)c2ccc(C#Cc3ncccn3)cc12` [Compound 69, 1-(2-((2S,4R)-4-fluoro-2-(2-fluoro-3-(pyrimidin-5-yl)phenylcarbamoyl)pyrrolidin-1-yl)-2-oxoethyl)-5-(pyrimidin-2-ylethynyl)-1H-indazole-3-carboxamide] as the compound, how does the IC50 read?
A: Its IC50 is less than 1000 nM.

Q: How did the IC50 turn out when `NC(=O)c1nn(CC(=O)N2C[C@H](F)C[C@H]2C(=O)Nc2cncc(C(F)(F)F)n2)c2ccc(C#Cc3ncc(F)cn3)cc12` [Compound 70, 1-(2-((2S,4R)-4-fluoro-2-(6-(trifluoromethyl)pyrazin-2-ylcarbamoyl)pyrrolidin-1-yl)-2-oxoethyl)-5-((5-fluoropyrimidin-2-yl)ethynyl)-1H-indazole-3-carboxamide] was run?
A: The IC50 was less than 1000 nM.

Q: How did the IC50 turn out when `NC(=O)c1nn(CC(=O)N2C[C@H](F)C[C@H]2C(=O)Nc2ccc3cccc(Cl)c3n2)c2ccc(C#Cc3ncc(F)cn3)cc12` [Compound 71, 1-(2-((2S,4R)-2-(8-chloroquinolin-2-ylcarbamoyl)-4-fluoropyrrolidin-1-yl)-2-oxoethyl)-5-((5-fluoropyrimidin-2-yl)ethynyl)-1H-indazole-3-carboxamide] was run?
A: Its IC50 is less than 1000 nM.

Q: `NC(=O)c1nn(CC(=O)N2[C@@H]3C[C@@H]3C[C@H]2C(=O)Nc2ccn(CC(F)(F)F)n2)c2ccc(C#Cc3ncc(F)cn3)cc12` [Compound 72, 5-((5-fluoropyrimidin-2-yl)ethynyl)-1-(2-oxo-2-((1R,3S,5R)-3-(1-(2,2,2-trifluoroethyl)-1H-pyrazol-3-ylcarbamoyl)-2-azabicyclo[3.1.0]hexan-2-yl)ethyl)-1H-indazole-3-carboxamide] was tested. Which IC50 did it give?
A: Its IC50 is less than 1000 nM.

Q: With `NC(=O)c1nn(CC(=O)N2C[C@H](F)C[C@H]2C(=O)Nc2cccc(-c3ccccc3Cl)c2F)c2ccc(C#Cc3cccnn3)cc12` [Compound 73, 1-(2-((2S,4R)-2-(2′-chloro-2-fluorobiphenyl-3-ylcarbamoyl)-4-fluoropyrrolidin-1-yl)-2-oxoethyl)-5-(pyridazin-3-ylethynyl)-1H-indazole-3-carboxamide] as the compound, how does the IC50 read?
A: The IC50 was less than 1000 nM.

Q: Which IC50 does the source give for `NC(=O)c1nn(CC(=O)N2C[C@H](F)C[C@H]2C(=O)Nc2cc(C(F)(F)F)cc(Cl)n2)c2ccc(C#Cc3ncc(F)cn3)cc12` [Compound 74, 1-(2-((2S,4R)-2-(6-chloro-4-(trifluoromethyl)pyridin-2-ylcarbamoyl)-4-fluoropyrrolidin-1-yl)-2-oxoethyl)-5-((5-fluoropyrimidin-2-yl)ethynyl)-1H-indazole-3-carboxamide] here?
A: The IC50 was less than 1000 nM.

Q: For `NC(=O)c1nn(CC(=O)N2C[C@H](F)C[C@H]2C(=O)Nc2cccc(Cl)n2)c2ccc(C#Cc3cccnn3)cc12` [Compound 75, 1-(2-((2S,4R)-2-(6-chloropyridin-2-ylcarbamoyl)-4-fluoropyrrolidin-1-yl)-2-oxoethyl)-5-(pyridazin-3-ylethynyl)-1H-indazole-3-carboxamide], which IC50 is on record?
A: Its IC50 is less than 1000 nM.

Q: `NC(=O)c1nn(CC(=O)N2C[C@H](F)C[C@H]2C(=O)Nc2ccc(C(F)(F)F)c(Cl)n2)c2ccc(C#Cc3ncc(F)cn3)cc12` [Compound 76, 1-(2-((2S,4R)-2-(6-chloro-5-(trifluoromethyl)pyridin-2-ylcarbamoyl)-4-fluoropyrrolidin-1-yl)-2-oxoethyl)-5-((5-fluoropyrimidin-2-yl)ethynyl)-1H-indazole-3-carboxamide] was tested. Which IC50 did it give?
A: The IC50 was less than 1000 nM.

Q: For `NC(=O)c1nn(CC(=O)N2[C@@H]3C[C@@H]3C[C@H]2C(=O)Nc2cccc(Cl)n2)c2ccc(C#Cc3cccnn3)cc12` [Compound 77, 1-(2-((1R,3S,5R)-3-(6-chloropyridin-2-ylcarbamoyl)-2-azabicyclo[3.1.0]hexan-2-yl)-2-oxoethyl)-5-(pyridazin-3-ylethynyl)-1H-indazole-3-carboxamide], which IC50 is on record?
A: The IC50 was less than 1000 nM.

Q: With `COc1nc(C#Cc2ccc3c(c2)c(C(N)=O)nn3CC(=O)N2C[C@H](F)C[C@H]2C(=O)Nc2cccc(-c3ccccc3Cl)c2F)ncc1F` [Compound 78, 1-(2-((2S,4R)-2-(2′-chloro-2-fluorobiphenyl-3-ylcarbamoyl)-4-fluoropyrrolidin-1-yl)-2-oxoethyl)-5-((5-fluoro-4-methoxypyrimidin-2-yl)ethynyl)-1H-indazole-3-carboxamide] as the compound, how does the IC50 read?
A: The IC50 was less than 1000 nM.

Q: Which IC50 does the source give for `NC(=O)c1nn(CC(=O)N2C[C@H](F)C[C@H]2C(=O)Nc2cccc(-c3ccccc3Cl)c2F)c2ccc(C#Cc3ccnnc3)cc12` [Compound 79, 1-(2-((2S,4R)-2-(2′-chloro-2-fluorobiphenyl-3-ylcarbamoyl)-4-fluoropyrrolidin-1-yl)-2-oxoethyl)-5-(pyridazin-4-ylethynyl)-1H-indazole-3-carboxamide] here?
A: Its IC50 is less than 1000 nM.
